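Method: 48-hour compound exposure of cells in 96-well plates, five concentrations, linear interpolation of endpoints. GI50 marks 50% less growth.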 Active and inactive are the calls of the source. Cut-off read from the data, not from the text of the source: active = GI50 up to about 1.1 µM and inactive = higher.
Assays:
Test in all cases: DTP human tumour cell line panel, 48 h
OVCAR-4 = system: OVCAR-4
RPMI-8226 = system: RPMI-8226
MDA-MB-231 = system: MDA-MB-231
HL-60 = system: HL-60
SF-268 = system: SF-268
MOLT-4 = system: MOLT-4
HCT-116 = system: HCT-116
SF-295 = system: SF-295
DU-145 = system: DU-145
SR = system: SR
SW-620 = system: SW-620
U-251 = system: U-251
HCC 2998 = system: HCC 2998
OVCAR-3 = system: OVCAR-3
SK-MEL-5 = system: SK-MEL-5
HOP-92 = system: HOP-92
NCI-H460 = system: NCI-H460
IGROV-1 = system: IGROV-1
K562 = system: K562
SNB-75 = system: SNB-75

## [N-]=[N+]=CC(=O)OCC1SCCCS1
OVCAR-4
  GI50: > 100 µM (inactive)
RPMI-8226
  GI50: > 100 µM (inactive)
MDA-MB-231
  GI50: > 100 µM (inactive)
HL-60
  GI50: > 100 µM (inactive)
SF-268
  GI50: > 100 µM (inactive)
MOLT-4
  GI50: > 100 µM (inactive)
HCT-116
  GI50: > 100 µM (inactive)
SF-295
  GI50: > 100 µM (inactive)
DU-145
  GI50: > 100 µM (inactive)
SR
  GI50: > 100 µM (inactive)
SW-620
  GI50: > 100 µM (inactive)
U-251
  GI50: > 100 µM (inactive)
HCC 2998
  GI50: > 100 µM (inactive)
OVCAR-3
  GI50: > 100 µM (inactive)
SK-MEL-5
  GI50: > 100 µM (inactive)
HOP-92
  GI50: > 100 µM (inactive)
NCI-H460
  GI50: 74.6 µM (inactive)
IGROV-1
  GI50: > 100 µM (inactive)
K562
  GI50: > 100 µM (inactive)

## COc1cc(C2CC(C)(N3CCOCC3)Oc3cc4c(cc32)OCO4)cc(OC)c1OC (stereo not drawn)
OVCAR-4
  GI50: 0.275 µM (active)
RPMI-8226
  GI50: 0.0263 µM (active)
MDA-MB-231
  GI50: 0.0748 µM (active)
HL-60
  GI50: 0.0228 µM (active)
SF-268
  GI50: 4.83 µM (inactive)
MOLT-4
  GI50: 0.136 µM (active)
HCT-116
  GI50: 0.129 µM (active)
SF-295
  GI50: 0.104 µM (active)
DU-145
  GI50: 0.167 µM (active)
SR
  GI50: 0.206 µM (active)
SW-620
  GI50: 0.136 µM (active)
U-251
  GI50: 0.0577 µM (active)
HCC 2998
  GI50: 0.427 µM (active)
OVCAR-3
  GI50: 0.207 µM (active)
SK-MEL-5
  GI50: 0.103 µM (active)
HOP-92
  GI50: 2.67 µM (inactive)
NCI-H460
  GI50: 0.156 µM (active)
IGROV-1
  GI50: 0.222 µM (active)
K562
  GI50: 0.026 µM (active)

## c1ccc(NC2(c3nnnn3C3CCCCC3)CCNCC2)cc1
OVCAR-4
  GI50: 49.8 µM (inactive)
SNB-75
  GI50: 14.9 µM (inactive)
RPMI-8226
  GI50: 22.9 µM (inactive)
MDA-MB-231
  GI50: 39.6 µM (inactive)
HL-60
  GI50: 14.1 µM (inactive)
SF-268
  GI50: 39.6 µM (inactive)
MOLT-4
  GI50: 18.2 µM (inactive)
HCT-116
  GI50: 15.2 µM (inactive)
SF-295
  GI50: 17.9 µM (inactive)
DU-145
  GI50: 37 µM (inactive)
SR
  GI50: 17.5 µM (inactive)
SW-620
  GI50: 22.2 µM (inactive)
U-251
  GI50: 16.6 µM (inactive)
HCC 2998
  GI50: 11.7 µM (inactive)
SK-MEL-5
  GI50: 19.5 µM (inactive)
HOP-92
  GI50: 6.01 µM (inactive)
NCI-H460
  GI50: 15.2 µM (inactive)
IGROV-1
  GI50: 32.7 µM (inactive)

## c1ccc(C[n+]2cccc(-c3cc4ccccc4[nH]3)c2)cc1
OVCAR-4
  GI50: 40.2 µM (inactive)
SNB-75
  GI50: 29.4 µM (inactive)
RPMI-8226
  GI50: 17.6 µM (inactive)
MDA-MB-231
  GI50: 37.2 µM (inactive)
HL-60
  GI50: 17.6 µM (inactive)
SF-268
  GI50: 17.6 µM (inactive)
MOLT-4
  GI50: 21.5 µM (inactive)
HCT-116
  GI50: 32.5 µM (inactive)
SF-295
  GI50: 77.8 µM (inactive)
DU-145
  GI50: 47.4 µM (inactive)
SR
  GI50: 32.1 µM (inactive)
SW-620
  GI50: 72.6 µM (inactive)
U-251
  GI50: 34.5 µM (inactive)
OVCAR-3
  GI50: 31 µM (inactive)
SK-MEL-5
  GI50: 10.6 µM (inactive)
HOP-92
  GI50: 16.4 µM (inactive)
NCI-H460
  GI50: 25.3 µM (inactive)
IGROV-1
  GI50: 19.4 µM (inactive)
K562
  GI50: 21.6 µM (inactive)

## COc1cc(C(C)(C)C)c(OC(=O)/C=C/C(=O)O/C=C/[N+](=O)[O-])c(C(C)(C)C)c1
SNB-75
  GI50: > 100 µM (inactive)
RPMI-8226
  GI50: > 100 µM (inactive)
MDA-MB-231
  GI50: 33.9 µM (inactive)
HL-60
  GI50: 0.324 µM (active)
SF-268
  GI50: 30.2 µM (inactive)
MOLT-4
  GI50: > 100 µM (inactive)
HCT-116
  GI50: 46.5 µM (inactive)
SF-295
  GI50: > 100 µM (inactive)
DU-145
  GI50: 38.2 µM (inactive)
SR
  GI50: 63.8 µM (inactive)
SW-620
  GI50: 28.4 µM (inactive)
U-251
  GI50: 47.1 µM (inactive)
HCC 2998
  GI50: > 100 µM (inactive)
OVCAR-3
  GI50: 32.7 µM (inactive)
SK-MEL-5
  GI50: 35.3 µM (inactive)
HOP-92
  GI50: > 100 µM (inactive)
NCI-H460
  GI50: 66.4 µM (inactive)
IGROV-1
  GI50: 69.8 µM (inactive)
K562
  GI50: > 100 µM (inactive)

## C1=C\SS/C=C\SS/C=C\SS/C=C\SS/1
OVCAR-4
  GI50: > 100 µM (inactive)
RPMI-8226
  GI50: 58.7 µM (inactive)
MDA-MB-231
  GI50: > 100 µM (inactive)
HL-60
  GI50: 24.9 µM (inactive)
SF-268
  GI50: 70.8 µM (inactive)
MOLT-4
  GI50: 42.3 µM (inactive)
HCT-116
  GI50: > 100 µM (inactive)
SF-295
  GI50: 45.3 µM (inactive)
DU-145
  GI50: > 100 µM (inactive)
SR
  GI50: 54.1 µM (inactive)
SW-620
  GI50: 51.4 µM (inactive)
U-251
  GI50: 81.8 µM (inactive)
HCC 2998
  GI50: > 100 µM (inactive)
SK-MEL-5
  GI50: 99.3 µM (inactive)
HOP-92
  GI50: 75.7 µM (inactive)
NCI-H460
  GI50: 22.9 µM (inactive)
IGROV-1
  GI50: > 100 µM (inactive)
K562
  GI50: 27.9 µM (inactive)

## COc1ccc(N)c(C(O)CCNC(C)=O)c1 (stereo not drawn)
OVCAR-4
  GI50: > 100 µM (inactive)
SNB-75
  GI50: > 100 µM (inactive)
RPMI-8226
  GI50: > 100 µM (inactive)
MDA-MB-231
  GI50: > 100 µM (inactive)
HL-60
  GI50: > 100 µM (inactive)
SF-268
  GI50: > 100 µM (inactive)
MOLT-4
  GI50: > 100 µM (inactive)
HCT-116
  GI50: > 100 µM (inactive)
SF-295
  GI50: > 100 µM (inactive)
DU-145
  GI50: > 100 µM (inactive)
SR
  GI50: > 100 µM (inactive)
SW-620
  GI50: > 100 µM (inactive)
U-251
  GI50: > 100 µM (inactive)
OVCAR-3
  GI50: > 100 µM (inactive)
SK-MEL-5
  GI50: > 100 µM (inactive)
HOP-92
  GI50: > 100 µM (inactive)
NCI-H460
  GI50: > 100 µM (inactive)
IGROV-1
  GI50: > 100 µM (inactive)

## NCCN(CCN(C(=O)Nc1ccccc1)c1ccccc1)C(=O)Nc1ccccc1
SNB-75
  GI50: 18.1 µM (inactive)
RPMI-8226
  GI50: 27.5 µM (inactive)
MDA-MB-231
  GI50: 39.1 µM (inactive)
HL-60
  GI50: 18.9 µM (inactive)
SF-268
  GI50: 18.6 µM (inactive)
MOLT-4
  GI50: 35.5 µM (inactive)
HCT-116
  GI50: 16.3 µM (inactive)
SF-295
  GI50: 18.5 µM (inactive)
DU-145
  GI50: 18.2 µM (inactive)
SR
  GI50: 27.6 µM (inactive)
SW-620
  GI50: 22.5 µM (inactive)
U-251
  GI50: 28.9 µM (inactive)
HCC 2998
  GI50: 19.8 µM (inactive)
SK-MEL-5
  GI50: 18.5 µM (inactive)
HOP-92
  GI50: 17.4 µM (inactive)
NCI-H460
  GI50: 17.4 µM (inactive)
IGROV-1
  GI50: 17.6 µM (inactive)
K562
  GI50: 44.4 µM (inactive)

## CCOc1ccccc1/N=N/C1C(=O)N(C(=O)CC(=O)Nc2ccccc2C)N=C1C (stereo not drawn)
OVCAR-4
  GI50: > 100 µM (inactive)
SNB-75
  GI50: 24.2 µM (inactive)
RPMI-8226
  GI50: 43.9 µM (inactive)
MDA-MB-231
  GI50: 37.8 µM (inactive)
HL-60
  GI50: > 100 µM (inactive)
SF-268
  GI50: 19.6 µM (inactive)
MOLT-4
  GI50: > 100 µM (inactive)
HCT-116
  GI50: 44.4 µM (inactive)
SF-295
  GI50: 15.9 µM (inactive)
DU-145
  GI50: 79.3 µM (inactive)
SR
  GI50: > 100 µM (inactive)
SW-620
  GI50: > 100 µM (inactive)
U-251
  GI50: 19.4 µM (inactive)
HCC 2998
  GI50: > 100 µM (inactive)
OVCAR-3
  GI50: 87.9 µM (inactive)
SK-MEL-5
  GI50: > 100 µM (inactive)
HOP-92
  GI50: 17.1 µM (inactive)
NCI-H460
  GI50: 43.7 µM (inactive)
IGROV-1
  GI50: 45 µM (inactive)

## CC(=O)N(C)c1ccc(/N=C/N(C)C)cc1
OVCAR-4
  GI50: > 100 µM (inactive)
SNB-75
  GI50: > 100 µM (inactive)
RPMI-8226
  GI50: > 100 µM (inactive)
MDA-MB-231
  GI50: > 100 µM (inactive)
HL-60
  GI50: > 100 µM (inactive)
SF-268
  GI50: > 100 µM (inactive)
MOLT-4
  GI50: > 100 µM (inactive)
HCT-116
  GI50: > 100 µM (inactive)
SF-295
  GI50: > 100 µM (inactive)
DU-145
  GI50: > 100 µM (inactive)
SR
  GI50: > 100 µM (inactive)
U-251
  GI50: > 100 µM (inactive)
OVCAR-3
  GI50: 44 µM (inactive)
SK-MEL-5
  GI50: > 100 µM (inactive)
HOP-92
  GI50: > 100 µM (inactive)
IGROV-1
  GI50: > 100 µM (inactive)
K562
  GI50: > 100 µM (inactive)

## Cc1ccc(C(=O)Nc2ccc(CP(=O)(O)O)cc2CP(=O)(O)O)cc1N
OVCAR-4
  GI50: > 100 µM (inactive)
SNB-75
  GI50: > 100 µM (inactive)
RPMI-8226
  GI50: > 100 µM (inactive)
MDA-MB-231
  GI50: > 100 µM (inactive)
HL-60
  GI50: > 100 µM (inactive)
SF-268
  GI50: > 100 µM (inactive)
MOLT-4
  GI50: > 100 µM (inactive)
HCT-116
  GI50: > 100 µM (inactive)
SF-295
  GI50: > 100 µM (inactive)
DU-145
  GI50: > 100 µM (inactive)
SR
  GI50: > 100 µM (inactive)
SW-620
  GI50: > 100 µM (inactive)
U-251
  GI50: > 100 µM (inactive)
HCC 2998
  GI50: > 100 µM (inactive)
OVCAR-3
  GI50: > 100 µM (inactive)
SK-MEL-5
  GI50: > 100 µM (inactive)
HOP-92
  GI50: > 100 µM (inactive)
IGROV-1
  GI50: > 100 µM (inactive)
K562
  GI50: > 100 µM (inactive)

Reference: ChEMBL document CHEMBL1201862, “PubChem BioAssay data set” (2004)
